# PubChem BioAssay AID328 (DTP/NCI, 2004)
# Values joined by “and” are separate entries in the source; they are usually repeats but may differ in a detail not shown here. Identical values can stand only once. Toxic doses and inconclusive results are not listed.
# System: BDF1 mice, P388 leukemia ip, median survival T/C
# Experiment: NCI In Vivo Anticancer Drug Screen. Data for tumor model P388 Leukemia (intraperitoneal) in B6D2F1 (BDF1) mice
# Conditions: endpoint: median survival time, higher = longer survival
# How it was run: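 Survival ratio, drug arm over vehicle arm, in mice with a transplanted tumour.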
# [1] = dose: 0.44 mg/kg/injection, schedule: Q04DX003 (ip), vehicle: saline
# [2] = dose: 1.5 mg/kg/injection, schedule: Q04DX003 (ip), vehicle: saline
# [3] = dose: 100.0 mg/kg/injection, schedule: Q04DX003 (ip), vehicle: saline with Tween-80
# [4] = dose: 200.0 mg/kg/injection, schedule: Q01DX009 (ip), vehicle: Klucel (hydroxypropylcellulose) (HPC)
# [5] = dose: 400.0 mg/kg/injection, schedule: Q01DX009 (ip), vehicle: Klucel (hydroxypropylcellulose) (HPC)
# [6] = dose: 50.0 mg/kg/injection, schedule: Q01DX009 (ip), vehicle: saline with Tween-80
# [7] = dose: 200.0 mg/kg/injection, schedule: Q04DX003 (ip), vehicle: saline with Tween-80
# [8] = dose: 400.0 mg/kg/injection, schedule: Q04DX003 (ip), vehicle: saline with Tween-80
# [9] = dose: 25.0 mg/kg/injection, schedule: Q01DX009 (ip), vehicle: saline
# [10] = dose: 50.0 mg/kg/injection, schedule: Q01DX009 (ip), vehicle: saline
# [11] = dose: 100.0 mg/kg/injection, schedule: Q01DX009 (ip), vehicle: saline
# [12] = dose: 100.0 mg/kg/injection, schedule: Q01DX009 (ip), vehicle: saline with Tween-80
# [13] = dose: 100.0 mg/kg/injection, schedule: Q04DX003 (ip), vehicle: saline
# [14] = dose: 200.0 mg/kg/injection, schedule: Q04DX003 (ip), vehicle: saline
# [15] = dose: 400.0 mg/kg/injection, schedule: Q04DX003 (ip), vehicle: saline
# [16] = dose: 100.0 mg/kg/injection, schedule: Q04DX002 (ip), vehicle: saline with Tween-80
# [17] = dose: 200.0 mg/kg/injection, schedule: Q04DX002 (ip), vehicle: saline with Tween-80
# [18] = dose: 50.0 mg/kg/injection, schedule: Q04DX003 (ip), vehicle: saline
# [19] = dose: 200.0 mg/kg/injection, schedule: Q01DX009 (ip), vehicle: saline with Tween-80
# [20] = dose: 100.0 mg/kg/injection, schedule: Q01DX009 (ip), vehicle: Klucel (hydroxypropylcellulose) (HPC)
# [21] = dose: 100.0 mg/kg/injection, schedule: Q04DX003 (ip), vehicle: Klucel (hydroxypropylcellulose) (HPC)
# [22] = dose: 200.0 mg/kg/injection, schedule: Q04DX003 (ip), vehicle: Klucel (hydroxypropylcellulose) (HPC)
# [23] = dose: 400.0 mg/kg/injection, schedule: Q04DX003 (ip), vehicle: Klucel (hydroxypropylcellulose) (HPC)
smiles,measurement,setting,value
Cc1c2cnccc2c(C)c2c1c1ccccc1n2CCNCCO,T/C,[1],118 % of control
same,T/C,[2],109 % of control
same,T/C,[3],118 % of control
same,T/C,"dose: 150.0 mg/kg/injection, schedule: Q04DX003 (ip), vehicle: saline with Tween-80",90 % of control
CC(=O)c1c(C)c([N+](=O)[O-])c(C(C)(C)C)c([N+](=O)[O-])c1C,T/C,[4],91 % of control and 100 % of control
same,T/C,[5],100 % of control and 123 % of control
O=C(CO)c1ccc([N+](=O)[O-])cc1,T/C,[6],106 % of control
COc1cc(/C=N/NC(=O)c2cccs2)cc(OC)c1OC,T/C,[3],90 % of control
same,T/C,[7],90 % of control
same,T/C,[8],100 % of control
CC(C)CSC(C)C,T/C,[9],110 % of control
same,T/C,[10],110 % of control
same,T/C,[11],110 % of control
Nc1ncnc2c1nnn2C1CC(CO)C(O)C1O (stereo not given),T/C,"dose: 67.0 mg/kg/injection, schedule: Q01DX009 (ip), vehicle: saline with Tween-80",163 % of control
same,T/C,"dose: 75.0 mg/kg/injection, schedule: Q01DX009 (ip), vehicle: saline with Tween-80",153 % of control
same,T/C,[12],168 % of control
NNCCC(=O)O,T/C,[13],91 % of control
same,T/C,[14],112 % of control
same,T/C,"dose: 264.0 mg/kg/injection, schedule: Q04DX003 (ip), vehicle: saline",113 % of control
same,T/C,[15],118 % of control and 123 % of control
CSc1nnc(/C=C/c2ccc3c(c2)OCO3)c(=O)n1N,T/C,[16],106 % of control
same,T/C,[17],106 % of control
CCOC(=O)C(=CN(C(C)C)C(C)C)C(=O)OCC,T/C,"dose: 50.0 mg/kg/injection, schedule: Q04DX003 (ip), vehicle: saline with Tween-80",109 % of control
same,T/C,[3],104 % of control
same,T/C,[7],109 % of control
CNC(=O)c1nc(C)c(C)nc1OCc1ccccc1,T/C,"dose: 12.5 mg/kg/injection, schedule: Q01DX009 (ip), vehicle: saline",100 % of control
same,T/C,[9],95 % of control and 124 % of control
same,T/C,[10],97 % of control and 111 % of control
same,T/C,[18],111 % of control
same,T/C,[11],106 % of control and 109 % of control
same,T/C,[13],100 % of control
same,T/C,"dose: 200.0 mg/kg/injection, schedule: Q01DX009 (ip), vehicle: saline",91 % of control
same,T/C,[14],96 % of control
same,T/C,"dose: 300.0 mg/kg/injection, schedule: Q01DX009 (ip), vehicle: saline",97 % of control
same,T/C,"dose: 400.0 mg/kg/injection, schedule: Q01DX009 (ip), vehicle: saline",119 % of control
same,T/C,[15],88 % of control
CN1C(=O)NNC(=O)c2ccccc21,T/C,[6],106 % of control
same,T/C,[12],100 % of control
same,T/C,[19],97 % of control
O=c1oc(-c2cc([N+](=O)[O-])ccc2Cl)nc2ccccc12,T/C,"dose: 25.0 mg/kg/injection, schedule: Q04DX003 (ip), vehicle: saline with Tween-80",95 % of control
same,T/C,[3],95 % of control
CSC1C(=O)Nc2ccc(Cl)cc21 (stereo not given),T/C,[3],97 % of control and 108 % of control
same,T/C,[7],98 % of control and 99 % of control
same,T/C,[8],99 % of control and 110 % of control
same,T/C,"dose: 600.0 mg/kg/injection, schedule: Q04DX003 (ip), vehicle: saline with Tween-80",92 % of control
CS(=O)(=O)Nc1ccc(Nc2c3ccccc3nc3cc(N)ccc23)cc1,T/C,"dose: 0.22 mg/kg/injection, schedule: Q01DX009 (ip), vehicle: saline",205 % of control
same,T/C,"dose: 0.33 mg/kg/injection, schedule: Q01DX009 (ip), vehicle: saline",205 % of control
same,T/C,[1],159 % of control
same,T/C,"dose: 0.5 mg/kg/injection, schedule: Q01DX009 (ip), vehicle: saline",222 % of control
same,T/C,"dose: 0.56 mg/kg/injection, schedule: Q01DX009 (ip), vehicle: saline",222 % of control
same,T/C,"dose: 0.66 mg/kg/injection, schedule: Q04DX003 (ip), vehicle: saline",168 % of control
same,T/C,"dose: 0.75 mg/kg/injection, schedule: Q01DX009 (ip), vehicle: saline",253 % of control
same,T/C,"dose: 0.83 mg/kg/injection, schedule: Q01DX009 (ip), vehicle: saline",275 % of control
same,T/C,"dose: 1.0 mg/kg/injection, schedule: Q04DX003 (ip), vehicle: saline",154 % of control
same,T/C,"dose: 1.25 mg/kg/injection, schedule: Q01DX009 (ip), vehicle: saline",268 % of control and 271 % of control
same,T/C,[2],190 % of control
same,T/C,"dose: 1.87 mg/kg/injection, schedule: Q01DX009 (ip), vehicle: saline",111 % of control
same,T/C,"dose: 2.5 mg/kg/injection, schedule: Q01DX009 (ip), vehicle: saline",97 % of control
same,T/C,"dose: 2.9 mg/kg/injection, schedule: Q04DX003 (ip), vehicle: saline",245 % of control
same,T/C,"dose: 4.4 mg/kg/injection, schedule: Q04DX003 (ip), vehicle: saline",168 % of control
same,T/C,"dose: 6.6 mg/kg/injection, schedule: Q04DX003 (ip), vehicle: saline",281 % of control
same,T/C,"dose: 10.0 mg/kg/injection, schedule: Q04DX003 (ip), vehicle: saline",195 % of control
C=C(C)C(=O)O[C@H]1[C@H]2[C@H](OC(=O)[C@H]2C)[C@H](O)[C@@H](C)[C@@H]2C=CC(=O)[C@]21C,T/C,"dose: 3.13 mg/kg/injection, schedule: Q01DX009 (ip), vehicle: saline",102 % of control
same,T/C,"dose: 6.25 mg/kg/injection, schedule: Q01DX009 (ip), vehicle: saline",110 % of control
same,T/C,[9],161 % of control
CN(C)CCOCN1COCC1(C)C,T/C,[6],120 % of control
COc1cccc(CC2=C3CCCN(C(=O)c4ccccc4)C3CCC2=O)c1 (stereo not given),T/C,"dose: 100.0 mg/kg/injection, schedule: Q01DX001 (ip), vehicle: saline sonified",90 % of control
same,T/C,"dose: 200.0 mg/kg/injection, schedule: Q01DX001 (ip), vehicle: saline sonified",90 % of control
same,T/C,"dose: 400.0 mg/kg/injection, schedule: Q01DX001 (ip), vehicle: saline sonified",104 % of control
COC(=O)C1(Br)CCC1(Br)C(=O)OC (stereo not given),T/C,"dose: 50.0 mg/kg/injection, schedule: Q01DX009 (ip), vehicle: Klucel (hydroxypropylcellulose) (HPC)",100 % of control
same,T/C,"dose: 100.0 mg/kg/injection, schedule: Q01DX001 (ip), vehicle: other",100 % of control
same,T/C,[20],109 % of control
same,T/C,[21],109 % of control
same,T/C,"dose: 200.0 mg/kg/injection, schedule: Q01DX001 (ip), vehicle: other",95 % of control
same,T/C,[4],113 % of control
same,T/C,[22],109 % of control
same,T/C,"dose: 400.0 mg/kg/injection, schedule: Q01DX001 (ip), vehicle: other",112 % of control
same,T/C,[23],113 % of control
CSC1C(=O)Nc2c1cccc2[N+](=O)[O-] (stereo not given),T/C,"dose: 50.0 mg/kg/injection, schedule: Q04DX002 (ip), vehicle: saline with Tween-80",96 % of control
same,T/C,[16],92 % of control
same,T/C,[17],99 % of control
N=C(N)SCc1ccc(C(=O)Oc2ccc([N+](=O)[O-])cc2)cc1,T/C,[9],104 % of control
same,T/C,[10],90 % of control
same,T/C,[18],110 % of control
same,T/C,[13],110 % of control
O=S(CC(Cl)c1ccccc1)c1ccccc1 (stereo not given),T/C,"dose: 50.0 mg/kg/injection, schedule: Q01DX009 (ip), vehicle: other",106 % of control
same,T/C,"dose: 100.0 mg/kg/injection, schedule: Q01DX009 (ip), vehicle: other",106 % of control
same,T/C,"dose: 200.0 mg/kg/injection, schedule: Q01DX009 (ip), vehicle: other",100 % of control
C=CCn1c(=S)[nH]c2ccccc2c1=O,T/C,[12],100 % of control
same,T/C,[19],95 % of control
same,T/C,"dose: 400.0 mg/kg/injection, schedule: Q01DX009 (ip), vehicle: saline with Tween-80",100 % of control
NC(=S)NN1C2CSC1CS2,T/C,"dose: 22.5 mg/kg/injection, schedule: Q01DX009 (ip), vehicle: saline with Tween-80",100 % of control
same,T/C,"dose: 45.0 mg/kg/injection, schedule: Q01DX009 (ip), vehicle: saline with Tween-80",110 % of control
same,T/C,"dose: 90.0 mg/kg/injection, schedule: Q01DX009 (ip), vehicle: saline with Tween-80",108 % of control
CCC(=O)O[C@H]1CC[C@H]2[C@@H]3CC[C@H]4CC(=O)[C@H](C)C[C@]4(C)[C@H]3CC[C@]12C,T/C,[20],87 % of control
same,T/C,[21],104 % of control
same,T/C,[4],95 % of control
same,T/C,[22],100 % of control
same,T/C,[5],87 % of control
same,T/C,[23],104 % of control
